# Assay results taken from article PMC10205683, “Structure Based Discovery of Inhibitors of CYP125 and CYP142 from Mycobacterium tuberculosis” (Chemistry (Weinheim an Der Bergstrasse, Germany), 2023).
# Where two headings read alike, the source gives them in different places.
# How the values were obtained:
# CYP125 = biological target: T1, CYP125 (Mycobacterium tuberculosis, UniProt P9WPP1); assay: biochemical; type: binding; conditions: UV-Vis spectroscopy
# T1 construct: encoding residues 18-433; twin-strep hexahistidine tag (TEV-cleavable) (N, cleaved yes); made in house; host or cells: E. coli C41(DE3), pET21a
# T1 sequence (P9WPP1 18-433 limits assumed): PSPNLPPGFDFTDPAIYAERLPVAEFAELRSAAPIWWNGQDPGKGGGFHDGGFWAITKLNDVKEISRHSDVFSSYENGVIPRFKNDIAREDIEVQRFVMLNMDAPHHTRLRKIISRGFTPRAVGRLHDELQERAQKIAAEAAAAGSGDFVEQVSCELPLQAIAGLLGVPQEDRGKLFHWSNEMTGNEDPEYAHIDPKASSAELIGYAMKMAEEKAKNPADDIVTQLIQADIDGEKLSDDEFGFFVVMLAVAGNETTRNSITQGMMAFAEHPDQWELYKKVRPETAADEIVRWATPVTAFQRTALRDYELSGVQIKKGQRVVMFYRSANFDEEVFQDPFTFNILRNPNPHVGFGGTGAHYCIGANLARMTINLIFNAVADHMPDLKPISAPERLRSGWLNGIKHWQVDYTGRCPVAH
# CYP142 [1] = biological target: T2, CYP142 (Mycobacterium tuberculosis, UniProt P9WPL5); assay: biochemical; conditions: UV-Vis spectroscopy
# T2 sequence (P9WPL5 2-398): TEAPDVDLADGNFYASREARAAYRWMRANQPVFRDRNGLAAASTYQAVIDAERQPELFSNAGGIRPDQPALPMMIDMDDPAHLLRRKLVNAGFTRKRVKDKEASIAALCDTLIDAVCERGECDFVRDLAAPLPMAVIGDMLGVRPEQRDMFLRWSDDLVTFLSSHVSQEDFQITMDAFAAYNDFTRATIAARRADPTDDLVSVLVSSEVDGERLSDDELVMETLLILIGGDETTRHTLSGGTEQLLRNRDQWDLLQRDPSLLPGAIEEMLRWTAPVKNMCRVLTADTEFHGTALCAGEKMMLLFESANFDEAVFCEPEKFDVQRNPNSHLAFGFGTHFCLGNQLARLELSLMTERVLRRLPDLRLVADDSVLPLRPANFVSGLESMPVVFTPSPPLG
# Mtb H37Rv (ATCC 27294) = assay: MIC determination against Mtb H37Rv; type: cell-based, Mycobacterium tuberculosis
# Mtb strain KB019 = assay: microbe, parasite or virus in culture; type: cell-based; conditions: Mycobacterium tuberculosis
# Mtb strain K18b01MR = assay: microbe, parasite or virus in culture; type: cell-based; conditions: Mycobacterium tuberculosis
# Mtb strain NIH_G269DR = assay: microbe, parasite or virus in culture; type: cell-based; conditions: Mycobacterium tuberculosis
# Mtb strain K03b00DS = assay: MIC determination against Mtb K03b00DS (DS); type: cell-based; conditions: Mycobacterium tuberculosis
# Mtb strain CDC1551 = assay: MIC determination against Mtb CDC1551 (clinical strain); type: cell-based; conditions: Mycobacterium tuberculosis
# Mtb strain 53 K113 = assay: microbe, parasite or virus in culture; type: cell-based; conditions: Mycobacterium tuberculosis
# Mtb strain 028 K111 = assay: microbe, parasite or virus in culture; type: cell-based; conditions: Mycobacterium tuberculosis
# CYP142 [2] = biological target: T2, CYP142; conditions: read-out: KD (CYP142); UV-Vis spectroscopy
# [3] = Mycobacterium tuberculosis, 168 h
# [4] = Mycobacterium tuberculosis, 168 h, Table S1, H37Rv, […], 1 Week
# [5] = Mycobacterium tuberculosis, 336 h
structure (smiles),measurement,setting,value
CCOC(=O)c1cc2cc(-c3ccncc3)ccc2n1CC1CCCC1 [Compound 8],Kd,CYP125,300 ± 60 nM
same,Kd,CYP142 [1],60 ± 10 nM
CCOC(=O)c1cc2cc(-c3ccncc3)ccc2n1CCC1CCNCC1 [Compound 10],Kd,CYP125,5000 ± 200 nM
same,Kd,CYP142 [1],390 ± 60 nM
CCOC(=O)c1cc2cc(-c3ccncc3)ccc2n1C(=O)c1ccccc1 [Compound 6],Kd,CYP125,120 ± 40 nM
same,Kd,CYP142 [1],420 ± 80 nM
NCc1ccc(-c2cnns2)cc1 [Compound 1],Kd,CYP125,57700 nM
same,Kd,CYP142 [1],610 nM
CCOC(=O)c1cc2cc(-c3ccncc3)ccc2n1CCN1CCOCC1 [Compound 12],Kd,CYP125,2800 ± 100 nM
same,Kd,CYP142 [1],1100 ± 100 nM
COC(=O)c1cccc(-c2ccncc2)c1 [Compound 3],Kd,CYP125,146000 nM
same,Kd,CYP142 [1],1500 nM
CCOC(=O)c1cc2cc(-c3ccncc3)ccc2n1Cc1ccccc1 [Compound 5],Kd,CYP125,650 ± 60 nM
same,Kd,CYP142 [1],40 ± 10 nM
NC(=O)c1cc2cc(-c3ccncc3)ccc2n1CC1CCCCC1 [Compound 13],Kd,CYP125,450 ± 40 nM
same,Kd,CYP142 [1],30 ± 7 nM
CCCC(=O)c1cc2cc(-c3ccncc3)ccc2n1CCC1CCNCC1 [Compound 19],Kd,CYP125,3600 ± 200 nM
same,MIC,Mtb H37Rv (ATCC 27294),9.4 µM
same,MIC,Mtb H37Rv (ATCC 27294); [3],6.25 µM
same,MIC,Mtb H37Rv (ATCC 27294); [4],9.4 µM
same,MIC,Mtb H37Rv (ATCC 27294); [5],12.5 µM
same,MIC,"Mtb H37Rv (ATCC 27294); Table S1, H37Rv, […], 1 Week",12.5 µM
same,MIC,"Mtb strain KB019; KB019, 168 h",12.5 µM
same,MIC,"Mtb strain KB019; KB019, 336 h",19 µM
same,MIC,Mtb strain K18b01MR; 168 h,6.25 µM
same,MIC,Mtb strain K18b01MR; 336 h,6.25 µM
same,MIC,Mtb strain NIH_G269DR; 168 h,6.25 µM
same,MIC,Mtb strain NIH_G269DR; 336 h,6.25 µM
same,MIC,Mtb strain K03b00DS; 168 h,4.7 µM
same,MIC,Mtb strain K03b00DS; 336 h,4.7 µM
same,MIC,Mtb strain CDC1551; 168 h,6.25 µM
same,MIC,Mtb strain CDC1551; 336 h,6.25 µM
same,MIC,"Mtb strain 53 K113; 53K113, 168 h",6.25 µM
same,MIC,"Mtb strain 53 K113; 53K113, 336 h",6.25 µM
same,MIC,"Mtb strain 028 K111; 028K111, 168 h",6.25 µM
same,MIC,"Mtb strain 028 K111; 028K111, 336 h",6.25 µM
same,Kd,CYP142 [2],230 ± 50 nM
CCOC(=O)c1cc2cc(-c3ccncc3)ccc2n1CC1CCNCC1 [Compound 11],Kd,CYP125,14800 ± 900 nM
same,Kd,CYP142 [1],710 ± 90 nM
Cc1cnc(-c2cc3cc(-c4ccncc4)ccc3n2CCC2CCNCC2)o1 [Compound 17],Kd,CYP125,5300 ± 200 nM
same,MIC,Mtb H37Rv (ATCC 27294); [5],19 µM
same,MIC,"Mtb strain KB019; KB019, 168 h",12.5 µM
same,MIC,"Mtb strain KB019; KB019, 336 h",19 µM
same,MIC,Mtb strain K18b01MR; 168 h,6.25 µM
same,MIC,Mtb strain K18b01MR; 336 h,6.25 µM
same,MIC,Mtb strain NIH_G269DR; 168 h,6.25 µM
same,MIC,Mtb strain NIH_G269DR; 336 h,6.25 µM
same,MIC,Mtb strain K03b00DS; 168 h,4.7 µM
same,MIC,Mtb strain K03b00DS; 336 h,4.7 µM
same,MIC,Mtb strain CDC1551; 168 h,6.25 µM
same,MIC,Mtb strain CDC1551; 336 h,6.25 µM
same,MIC,"Mtb strain 53 K113; 53K113, 168 h",6.25 µM
same,MIC,"Mtb strain 53 K113; 53K113, 336 h",6.25 µM
same,MIC,"Mtb strain 028 K111; 028K111, 168 h",6.25 µM
same,MIC,"Mtb strain 028 K111; 028K111, 336 h",6.25 µM
same,Kd,CYP142 [1],790 ± 50 nM
c1cc(-c2ccc3c(ccn3CCN3CCNCC3)c2)ccn1 [Compound 14],Kd,CYP125,271000 ± 13000 nM
same,Kd,CYP142 [1],11100 ± 500 nM
"NNC(=O)c1ccncc1 [Isoniazid, reference compound]",MIC,Mtb H37Rv (ATCC 27294); [4],0.15 µM
CCOC(=O)c1cc2cc(-c3ccncc3)ccc2n1CC1CCCCC1 [Compound 7],Kd,CYP125,310 ± 30 nM
same,Kd,CYP142 [1],50 ± 10 nM
NC(=O)c1cc2cc(-c3ccncc3)ccc2n1CCN1CCNCC1 [Compound 15],Kd,CYP125,48800 ± 2300 nM
same,Kd,CYP142 [1],2500 ± 200 nM
CCOC(=O)c1cc2cc(-c3ccncc3)ccc2n1CC1CCC1 [Compound 9],Kd,CYP125,1100 ± 200 nM
same,Kd,CYP142 [1],90 ± 10 nM
Cc1nnc(-c2cc3cc(-c4ccncc4)ccc3n2CCC2CCNCC2)o1 [Compound 18],Kd,CYP125,10200 ± 100 nM
same,MIC,Mtb H37Rv (ATCC 27294); [4],25 µM
same,MIC,Mtb H37Rv (ATCC 27294); [5],> 50 µM
same,MIC,"Mtb H37Rv (ATCC 27294); Mycobacterium tuberculosis, 336 h, Table S1, H37Rv, […], 2 Week",50 µM
same,MIC,"Mtb H37Rv (ATCC 27294); Table S1, H37Rv, […], 1 Week",> 50 µM
same,MIC,"Mtb strain KB019; KB019, 168 h",> 50 µM
same,MIC,"Mtb strain KB019; KB019, 336 h",50 µM
same,MIC,Mtb strain K18b01MR; 168 h,50 µM
same,MIC,Mtb strain K18b01MR; 336 h,50 µM
same,MIC,Mtb strain NIH_G269DR; 168 h,> 50 µM
same,MIC,Mtb strain NIH_G269DR; 336 h,> 50 µM
same,MIC,Mtb strain K03b00DS; 168 h,50 µM
same,MIC,Mtb strain K03b00DS; 336 h,50 µM
same,MIC,Mtb strain CDC1551; 168 h,50 µM
same,MIC,Mtb strain CDC1551; 336 h,50 µM
same,MIC,"Mtb strain 53 K113; 53K113, 168 h",50 µM
same,MIC,"Mtb strain 53 K113; 53K113, 336 h",> 50 µM
same,MIC,"Mtb strain 028 K111; 028K111, 168 h",50 µM
same,MIC,"Mtb strain 028 K111; 028K111, 336 h",> 50 µM
same,Kd,CYP142 [1],990 ± 100 nM
COc1ccc(-c2ccncc2)cc1 [Compound 2],Kd,CYP125,58500 ± 3800 nM
same,Kd,CYP142 [1],1600 ± 100 nM
"CCOC(=O)c1cc2cc(-c3ccncc3)ccc2[nH]1 [Compound 4, ethyl 5‐(pyridin‐4‐yl)‐1H‐indole‐2‐carboxylate]",Kd,CYP125,3000 nM
same,Kd,CYP142 [1],750 nM
Cc1noc(-c2cc3cc(-c4ccncc4)ccc3n2CCC2CCNCC2)n1 [Compound 16],Kd,CYP125,> 100000 nM
same,MIC,Mtb H37Rv (ATCC 27294); [3],4.7 µM
same,MIC,Mtb H37Rv (ATCC 27294); [5],12.5 µM
same,MIC,"Mtb strain KB019; KB019, 168 h",9.4 µM
same,MIC,"Mtb strain KB019; KB019, 336 h",12.5 µM
same,MIC,Mtb strain K18b01MR; 168 h,6.25 µM
same,MIC,Mtb strain K18b01MR; 336 h,6.25 µM
same,MIC,Mtb strain NIH_G269DR; 168 h,6.25 µM
same,MIC,Mtb strain NIH_G269DR; 336 h,9.4 µM
same,MIC,Mtb strain K03b00DS; 168 h,6.25 µM
same,MIC,Mtb strain K03b00DS; 336 h,6.25 µM
same,MIC,Mtb strain CDC1551; 168 h,6.25 µM
same,MIC,Mtb strain CDC1551; 336 h,6.25 µM
same,MIC,"Mtb strain 53 K113; 53K113, 168 h",6.25 µM
same,MIC,"Mtb strain 53 K113; 53K113, 336 h",6.25 µM
same,MIC,"Mtb strain 028 K111; 028K111, 168 h",6.25 µM
same,MIC,"Mtb strain 028 K111; 028K111, 336 h",6.25 µM
same,Kd,CYP142 [1],390 ± 50 nM
